Values joined by “and” are separate entries in the source; they are usually repeats but may differ in a detail not shown here. Identical values can stand only once.
Molecular target: T1, FPR2 (Homo sapiens, UniProt P25090)
T1 construct: expressed in transfected cells
T1 sequence (P25090 1-351): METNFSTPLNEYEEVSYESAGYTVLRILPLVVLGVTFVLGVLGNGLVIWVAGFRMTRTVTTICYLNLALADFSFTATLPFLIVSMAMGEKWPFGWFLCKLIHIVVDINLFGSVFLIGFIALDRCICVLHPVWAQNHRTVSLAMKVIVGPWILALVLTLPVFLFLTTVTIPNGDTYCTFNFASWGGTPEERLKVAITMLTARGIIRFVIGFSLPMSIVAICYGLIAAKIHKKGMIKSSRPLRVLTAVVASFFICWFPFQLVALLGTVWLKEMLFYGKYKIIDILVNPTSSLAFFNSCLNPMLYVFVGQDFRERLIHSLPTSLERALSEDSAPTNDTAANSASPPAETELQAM
Experiment: Compound-induced calcium activity on FLIPR Tetra in CHO-Gα16 cells stably expressing FPRL1
Assay type: cell-based
Conditions: for FPR2 Ga16-CHO (Rel. eff.): relative efficacy; for EC50: tested 0.61 to 10,000 nM, read-out: FPR2 Ga16-CHO EC50
Method: CHO-Gα16 cells stably expressing FPRL1 were cultured in (F12, 10% FBS, 1% PSA, 400 μg/ml geneticin and 50 μg/ml hygromycin) and HEK-Gqi5 cells stable expressing FPR1 were cultured in (DMEM high glucose, 10% FBS, 1% PSA, 400 μg/ml geneticin and 50 μg/ml hygromycin). In general, the day before the experiment, 18,000 cells/well were plated in a 384-well clear bottom poly-d-lysine coated plate. The following day the screening compound-induced calcium activity was assayed on the FLIPR^Tetra. The drug plates were prepared in 384-well microplates using the EP3 and the MultiPROBE robotic liquid handling systems. Compounds were tested at concentrations ranging from 0.61 to 10,000 nM. Results are expressed as EC50 (nM) and efficacy values.

Row | FPR2 Ga16-CHO (Rel. eff.) | EC50 | FPR2 Ga16-CHO (Rel. eff.) (listed as {Ethyl[(2S)-4-Methyl-2-({[4-(trifluoromethyl)phenyl]carbamoyl}amino)pentanoyl]am) | FPR2 Ga16-CHO (Rel. eff.) (listed as {Ethyl[(2S)-4-methyl-2-({[4-(trifluoromethyl)phenyl]carbamoyl}amino)pentanoyl]am) | SMILES
1 | (0.85) | 11.8 nM | – | – | CC(C)C[C@H](NC(=O)Nc1ccc(Br)cc1)C(=O)N(C)CC(=O)OC(C)(C)C [Compound 1, tert-Butyl{[(2S)-2-{[(4-Bromophenyl)carbamoyl]amino}-4-methylpentanoyl](methyl)amino}acetate]
2 | (1.02) | 995 nM | – | – | CC(C)C[C@H](NC(=O)Nc1ccc(C(F)(F)F)cc1)C(=O)N(C)CC(=O)OC(C)(C)C [Compound 2, tert-Butyl {Methyl[(2S)-4-methyl-2-({[4-(trifluoromethyl)phenyl]carbamoyl}amino)pentanoyl]amino}acetate]
3 | (1.06) | 163 nM | – | – | CC(C)C[C@H](NC(=O)Nc1ccc(Br)cc1)C(=O)N(CC(=O)OC(C)(C)C)C(C)C [Compound 3, tert-Butyl {[(2S)-2-{[(4-Bromophenyl)carbamoyl]amino}-4-methylpentanoyl](propan-2-yl)amino}acetate]
4 | (1.04) | 0.29 nM | – | – | CCCN(CC(=O)OC(C)(C)C)C(=O)[C@H](CC(C)C)NC(=O)Nc1ccc(Br)cc1 [Compound 4, tert-Butyl {[(2S)-2-{[(4-Bromophenyl)carbamoyl]amino}-4-methylpentanoyl](propyl)amino}acetate]
5 | (0.50) | 1970 nM | – | – | CCN(CC(=O)OC(C)(C)C)C(=O)[C@H](CC(C)C)NC(=O)Nc1ccc(Br)cc1 [Compound 6, tert-Butyl {[(2S)-2-{[(4-bromophenyl)carbamoyl]amino}-4-methylpentanoyl](ethyl)amino}acetate]
6 | (0.97) | 0.24 nM | – | – | CC(C)C[C@H](NC(=O)Nc1ccc(Br)cc1)C(=O)N(CC(=O)O)C(C)C [Compound 10, {[(2S)-2-{[(4-Bromophenyl)carbamoyl]amino}-4-methylpentanoyl](propan-2-yl)amino}acetic acid]

Second part, the compound before the results:

Row | SMILES | FPR2 Ga16-CHO (Rel. eff.) | EC50 | FPR2 Ga16-CHO (Rel. eff.) (listed as {Ethyl[(2S)-4-Methyl-2-({[4-(trifluoromethyl)phenyl]carbamoyl}amino)pentanoyl]am) | FPR2 Ga16-CHO (Rel. eff.) (listed as {Ethyl[(2S)-4-methyl-2-({[4-(trifluoromethyl)phenyl]carbamoyl}amino)pentanoyl]am)
7 | CCCN(CC(=O)OC(C)(C)C)C(=O)[C@H](CC(C)C)NC(=O)Nc1ccc(C(F)(F)F)cc1 [Compound 5, tert-Butyl {[(2S)-4-Methyl-2-({[4-(trifluoromethyl)phenyl]carbamoyl}amino)pentanoyl](propyl)amino}acetate] | (0.95) | 434 nM | – | –
8 | CCN(CC(=O)OC(C)(C)C)C(=O)[C@H](CC(C)C)NC(=O)Nc1ccc(C(F)(F)F)cc1 [Compound 7, tert-Butyl {Ethyl[(2S)-4-methyl-2-({[4-(trifluoromethyl)phenyl]carbamoyl}amino)pentanoyl]amino}acetate] | (0.91) | 17 nM | – | –
9 | CC(C)C[C@H](NC(=O)Nc1ccc(Br)cc1)C(=O)N(C)CC(=O)O [Compound 8, {[(2S)-2-{[(4-bromophenyl)carbamoyl]amino}-4-methylpentanoyl](methyl)amino}acetic acid] | (1.00) | < 1 nM | – | –
10 | CC(C)C[C@H](NC(=O)Nc1ccc(C(F)(F)F)cc1)C(=O)N(C)CC(=O)O [Compound 9, {Methyl[(2S)-4-Methyl-2-({[4-(trifluoromethyl)phenyl]carbamoyl}amino)pentanoyl]amino}acetic acid] | (1.02) | 0.41 nM | – | –
11 | CC(C)C[C@H](NC(=O)Nc1ccc(C(F)(F)F)cc1)C(=O)N(CC(=O)O)C(C)C [Compound 11, {[(2S)-4-Methyl-2-({[4-(trifluoromethyl)phenyl]carbamoyl}amino)pentanoyl](propan-2-yl)amino}acetic acid] | (0.75) | 1730 nM | – | –
12 | CCCN(CC(=O)O)C(=O)[C@H](CC(C)C)NC(=O)Nc1ccc(C(F)(F)F)cc1 [Compound 13, {[(2S)-4-Methyl-2-({[4-(trifluoromethyl)phenyl]carbamoyl}amino)pentanoyl](propyl)amino}acetic acid] | (1.04) | < 1 nM | – | –
13 | CCN(CC(=O)O)C(=O)[C@H](CC(C)C)NC(=O)Nc1ccc(Br)cc1 [Compound 14, {[(2S)-2-{[(4-Bromophenyl)carbamoyl]amino}-4-methylpentanoyl](ethyl)amino}acetic acid] | (0.99) | 0.13 nM | – | –
14 | CCN(CC(=O)O)C(=O)[C@H](CC(C)C)NC(=O)Nc1ccc(C(F)(F)F)cc1 [Compound 15, {Ethyl[(2S)-4-Methyl-2-({[4-(trifluoromethyl)phenyl]carbamoyl}amino)pentanoyl]amino}acetic acid] | – | 0.32 nM and 1.85 nM | (0.85) | (1.02)
